Data on one compound can be found in ChEMBL document CHEMBL5113403, “Design, synthesis, and biological evaluation of novel pyrazolo [3,4-d]pyrimidine derivatives as potent PLK4 inhibitors for the treatment of TRIM37-amplified breast cancer” (Eur J Med Chem, 2022).

In assay [1] the target is T1, Serine/threonine-protein kinase PLK4 (Homo sapiens) (UniProt O00444).
T1 sequence (whole entry): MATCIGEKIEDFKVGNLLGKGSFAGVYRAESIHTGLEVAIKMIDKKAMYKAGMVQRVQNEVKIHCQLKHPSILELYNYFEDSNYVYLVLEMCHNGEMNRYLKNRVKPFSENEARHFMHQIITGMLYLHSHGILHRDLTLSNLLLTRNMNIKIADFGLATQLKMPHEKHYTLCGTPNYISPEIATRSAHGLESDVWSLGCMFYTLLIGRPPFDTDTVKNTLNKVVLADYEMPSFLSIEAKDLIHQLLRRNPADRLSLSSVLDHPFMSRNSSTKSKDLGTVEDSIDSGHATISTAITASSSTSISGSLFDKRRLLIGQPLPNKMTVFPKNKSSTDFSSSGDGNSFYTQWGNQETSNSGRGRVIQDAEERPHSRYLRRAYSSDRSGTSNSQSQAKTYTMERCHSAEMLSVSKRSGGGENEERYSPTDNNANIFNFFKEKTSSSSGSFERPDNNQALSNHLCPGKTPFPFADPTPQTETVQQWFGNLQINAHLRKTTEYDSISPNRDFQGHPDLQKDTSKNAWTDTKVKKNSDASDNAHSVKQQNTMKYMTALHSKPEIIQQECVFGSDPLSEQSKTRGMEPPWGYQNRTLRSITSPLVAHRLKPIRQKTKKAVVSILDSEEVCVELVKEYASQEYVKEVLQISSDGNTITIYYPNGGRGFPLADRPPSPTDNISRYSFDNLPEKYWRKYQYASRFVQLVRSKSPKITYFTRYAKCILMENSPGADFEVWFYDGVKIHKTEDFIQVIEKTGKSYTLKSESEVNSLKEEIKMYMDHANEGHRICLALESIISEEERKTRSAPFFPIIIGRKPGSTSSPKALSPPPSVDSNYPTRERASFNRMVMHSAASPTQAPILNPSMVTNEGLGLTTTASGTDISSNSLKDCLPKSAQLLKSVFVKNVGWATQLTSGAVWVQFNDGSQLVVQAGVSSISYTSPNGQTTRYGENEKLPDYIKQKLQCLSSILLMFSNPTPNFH
As to the kind of experiment: Inhibition of PLK4 (unknown origin) at 2 uM relative to control.

The target of assay [2] is Serine/threonine-protein kinase PAK 4 (Homo sapiens, UniProt O96013). As to the kind of experiment: Inhibition of PAK4 (unknown origin) using S2 as substrate incubated for 60 mins in the presence of ATP by time-resolved HTRF assay. Background: TR-FRET usually uses a lanthanide donor and a delayed reading to cut background.
The target in assay [3] is T2, Serine/threonine-protein kinase PLK4 (Homo sapiens, UniProt O00444).
T2 sequence (O00444 whole entry): T1 sequence (whole entry)
The assay can be described thus: Inhibition of PLK4 (unknown origin).

Chain of Serine/threonine-protein kinase PAK 4 (O96013 whole entry): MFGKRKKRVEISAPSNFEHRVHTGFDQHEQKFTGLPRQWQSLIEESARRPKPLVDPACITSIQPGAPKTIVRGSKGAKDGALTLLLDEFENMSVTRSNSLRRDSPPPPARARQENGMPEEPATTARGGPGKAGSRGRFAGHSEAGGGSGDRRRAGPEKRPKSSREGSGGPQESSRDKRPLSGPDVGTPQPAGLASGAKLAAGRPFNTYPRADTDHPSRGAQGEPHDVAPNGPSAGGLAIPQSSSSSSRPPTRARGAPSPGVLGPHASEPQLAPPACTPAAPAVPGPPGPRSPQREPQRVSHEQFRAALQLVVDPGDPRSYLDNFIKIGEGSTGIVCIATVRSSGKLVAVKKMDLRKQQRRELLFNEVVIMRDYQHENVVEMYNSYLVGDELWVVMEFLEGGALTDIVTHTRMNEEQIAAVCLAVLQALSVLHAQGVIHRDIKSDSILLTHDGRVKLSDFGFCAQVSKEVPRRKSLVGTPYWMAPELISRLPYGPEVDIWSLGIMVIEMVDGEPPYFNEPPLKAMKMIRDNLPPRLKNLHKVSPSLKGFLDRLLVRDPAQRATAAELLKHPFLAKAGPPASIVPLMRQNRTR

The inhibition is the percentage by which the read-out fell short of the control. A low value points to a response near the control. Usually IC50 stands for the concentration needed to halve the response being measured. The compound `Cc1cc(Nc2cc(Cc3ccccc3)nc(NC3CCNCC3)n2)n[nH]1` showed an inhibition in assay [1] of 58.4%. Moreover, the values for the half-maximal inhibitory concentration (IC50) in assay [2] and in assay [3] were 5.9 nM and 351 nM, respectively.
